# Reference: patent US12146168B2, “Human CGAS-DNA complex and encoded protein” (priority 2018, dated 2024)
# Positions count from the first letter of the chain named. Names may count otherwise. “Also recorded” adds a separate entry of the source.
# B1: hcGAS K187N/L195R (protein, UniProt Q8N884 1-522, looked up, variant K187N L195R)
# Cyclic GMP-AMP synthase: MQPWHGKAMQRASEAGATAPKASARNARGAPMDPTESPAAPEAALPKAGKFGPARKSGSRQKKSAPDTQERPPVRATGARAKKAPQRAQDTQPSDATSAPGAEGLEPPAAREPALSRAGSCRQRGARCSTKPRPPPGPWDVPSPGLPVSAPILVRRDAAPGASKLRAVLEKLKLSRDDISTAAGMVNGVVDHLLRRLKCDSAFRGVGLLNTGSYYEHVKISAPNEFDVMFKLEVPRIQLEEYSNTRAYYFVKFKRNPKENPLSQFLEGEILSASKMLSKFRKIIKEEINDIKDTDVIMKRKRGGSPAVTLLISEKISVDITLALESKSSWPASTQEGLRIQNWLSAKVRKQLRLKPFYLVPKHAKEGNGFQEETWRLSFSHIEKEILNNHGKSKTCCENKEEKCCRKDCLKLMKYLLEQLKERFKDKKHLDKFSSYHVKTAFFHVCTQNPQDSQWDRKDLGLCFDNCVTYFLQCLRTEKLENYFIPEFNLFSSNLIDKRSKEFLTKQIEYERNNEFPVFDEF
# B2: L195R (protein, listed as Homo sapiens)
# chain: B1 Cyclic GMP-AMP synthase with N187K
# B3: K187N (protein, listed as Homo sapiens)
# chain: B1 Cyclic GMP-AMP synthase with R195L
# Key:
# V. cholerae = V. cholerae chemotaxis assay (overexpressed cGAMP synthases); assay type: cell-based, Vibrio cholerae; details: overexpression as MBP N-terminal fusion, arabinose induced
# Procedure: V. cholerae strains were cultured at 37° C. on LB media (1% tryptone, 0.5% yeast extract, 0.5% NaCl w/v), stored at −80° C. in LB supplemented with 30% glycerol, and were all derivatives of streptomycin resistant C6706 dncV: Tn (to remove endogenous 3′3′ cGAMP synthesis) (Davies et al. (2012) Cell 149:358-370). Where appropriate, antibiotics and supplemented nutrients were used at the following concentrations: streptomycin (100 μg ml^−1), carbenicillin (100 μg ml^−1), and diaminopimelic acid (300 μg ml^−1). hcGAS (D157-F522) and mcGAS (P147-L507) were codon optimized for bacterial expression (Genscript and IDT respectively), and all cGAS enzymes and control genes were overexpressed from a custom plasmid pBAD24T, a conjugation-proficient version of pBAD24 that harbors an arabinose inducible promoter and a strong ribosomal binding site (Guzman et al. (1995) J Bacteriol 177:4121-4130) that was further modified to include a new multiple cloning site. All genes overexpressed in V. cholera were encoded as MBP N-terminal fusions except the MBP alone negative control vector (Table 5).
# […]. V. cholerae chemotaxis assays were performed as previously described (Davies et al. (2012) Cell 149:358-370). Briefly, chemotaxis medium (1% tryptone, 0.5% NaCl, 0.3% agar w/v) was prepared, autoclaved, and stored at 2x concentration; and chemotaxis plates were prepared 2-24 h prior to inoculation. 2x medium was melted, diluted to 1× with sterile water, and supplemented with 0.2% (w/v) arabinose. Deep-well plates (OmniTray w/Lid, Thermo Fisher) were poured at 40 ml/plate. Overnight, stationary phase cultures (16-24 h post inoculation) were diluted 10-fold with fresh LB, arrayed in a 96-well plate, then applied to the surface of a chemotaxis plate via pinning with a 96-pin, floating pin replicator (VP 408FH, V&P Scientific). Alternatively, 1 μl of diluted culture was applied to the surface of chemotaxis agar by pipetting. Chemotaxis plates were incubated at 30° C. for 16-24 h.
# Chemotaxis was quantified by imaging plates at 16-24 h post inoculation and digitally measuring the area of motile bacteria using ImageJ (Schneider et al. (2012) Nat Methods 9:671-675). Chemotaxis area was normalized to MBP alone vector for each experiment for expression of “chemotaxis as a % of MBP”. Values were transformed into “chemotaxis repression” by calculating (chemotaxis as a % of MBP)-1, then normalizing this value to dncV. Chemotaxis repression was determined and used to simplify a direct relationship between cGAMP levels and plotted values.
# 45 bp dsDNA = assay: In vitro cGAS-DNA complex formation, electrophoretic mobility shift analysis; assay type: binding; details: 45 bp DNA, gradient dialysis
# Procedure: cGAS-DNA complexes were stably assembled using a method adapted from a nucleosome assembly gradient dialysis protocol (Lee and Narlikar (2001) Current protocols in molecular biology Chapter 21, Unit 21.26), and complex formation was measured by electrophoretic mobility shift analysis. Briefly, a concentration gradient of recombinant protein (0.2, 0.4, 2, 10 μM) was incubated with 45 bp dsDNA (2 μM) in a high-salt buffer containing 20 mM HEPES-NaOH pH 7.8, […], 1 mM DTT at 4° C. for 20 min. The reconstitution mixture was then transferred into 8-10 kDa molecular weight cut-off dialysis tubing (Spectrum Labs), and placed into a beaker of the high-salt buffer. The KCl concentration was reduced gradually by slowly replacing high-salt buffer with low-salt buffer (20 mM HEPES-KOH pH 7.5, 50 mM KCl, 1 mM DTT) with a peristaltic pump (Bio-Rad) at a rate of […] for 48 hr at 4° C. After gradient dialysis, reactions were supplemented to 5% glycerol, and subsequently separated on a 2% agarose gel in 0.5×TBE buffer at 4° C. Agarose gels were stained in a solution containing 10 μg ml^−1 ethidium bromide and visualized with a ChemiDoc™ MP Imaging System (Bio-Rad). Alternatively, where indicated in FIGS. 8A and 8C, cGAS-DNA complexes were assembled by incubating directly in reaction buffer containing 20 mM HEPES-NaOH pH 7.8, […], 1 mM DTT at 4° C. for 20 min and analyzed by electrophoretic mobility shift analysis as indicated above.
# V. cholerae genomic DNA = assay: In vitro cGAS 2′3′ cGAMP synthesis assay with bacterial genomic DNA; assay type: biochemical, Vibrio cholerae; details: purified V. cholerae genomic DNA
# 17 bp DNA = assay: In vitro cGAS 2′3′ cGAMP synthesis assay, DNA length specificity; assay type: biochemical
# Procedure: […]. Briefly, 1 μM cGAS ([…], SEQ ID NO: 6; antisense: 5′-[…]-3′, SEQ ID NO: 7) (Stetson and Medzhitov (2006) Immunity 24:93-103) in the 20 μl reaction buffer containing 50 mM Tris-HCl pH 7.5, 35 mM KCl, 5 mM Mg(OAc)2, 1 mM DTT, 25 μM ATP, 25 μM GTP, and [α-^32P] ATP (˜1 μCi) at 37° C. for 30 min. Reactions were terminated by heating at 95° C. for 3 min, and subsequently incubated with 4 U of alkaline phosphatase (New England Biolabs) at 37° C. for 30 min to hydrolyze unreacted NTPs. One microliter of each reaction was spotted on a PEI-Cellulose F thin-layer chromatography plate (EMD Biosciences) developed with 1.5 M KH2PO4 (pH 3.8) as a running buffer. Radiolabeled products were detected by Typhoon Trio Variable Mode Imager system (GE Healthcare) and quantified with ImageQuant 5.2. […]. Briefly, ATP/GTP titrations (0, 5, 10, 25, 50, 100, 200, 400, 800, and 1000 μM) were performed in the presence of fixed cGAS (1 μM) and 45 bp dsDNA concentration (1.5 μM) in 10 μl of reaction buffer containing 50 mM Tris-HCl pH 7.5, 35 mM KCl, 5 mM Mg(OAc)2, 1 mM DTT, and [α-^32P] ATP (˜1 μCi) at 37° C. for 5 min. Reactions were terminated and analyzed using thin layer chromatography as indicated above. The ATP-dependent cGAS enzyme kinetics were plotted and fitted according to Michaelis-Menten substrate inhibition analysis in GraphPad Prism (version 7.0c).
# [1] = test system: 45 bp double-stranded interferon stimulatory DNA; assay: In vitro cGAS 2′3′ cGAMP synthesis assay; assay type: biochemical; details: for 2′3′ cGAMP synthesis: 45 bp DNA
# Procedure: […]. Briefly, 1 μM cGAS (or other concentration as indicated) was incubated with a 45 bp double-stranded interferon stimulatory DNA (sense: 5′-[…]-3′, SEQ ID NO: 6; antisense: 5′-[…]-3′, SEQ ID NO: 7) (Stetson and Medzhitov (2006) Immunity 24:93-103) in the 20 μl reaction buffer containing 50 mM Tris-HCl pH 7.5, 35 mM KCl, 5 mM Mg(OAc)2, 1 mM DTT, 25 μM ATP, 25 μM GTP, and [α-^32P] ATP (˜1 μCi) at 37° C. for 30 min. Reactions were terminated by heating at 95° C. for 3 min, and subsequently incubated with 4 U of alkaline phosphatase (New England Biolabs) at 37° C. for 30 min to hydrolyze unreacted NTPs. One microliter of each reaction was spotted on a PEI-Cellulose F thin-layer chromatography plate (EMD Biosciences) developed with 1.5 M KH2PO4 (pH 3.8) as a running buffer. Radiolabeled products were detected by Typhoon Trio Variable Mode Imager system (GE Healthcare) and quantified with ImageQuant 5.2. […]. Briefly, ATP/GTP titrations (0, 5, 10, 25, 50, 100, 200, 400, 800, and 1000 μM) were performed in the presence of fixed cGAS (1 μM) and 45 bp dsDNA concentration (1.5 μM) in 10 μl of reaction buffer containing 50 mM Tris-HCl pH 7.5, 35 mM KCl, 5 mM Mg(OAc)2, 1 mM DTT, and [α-^32P] ATP (˜1 μCi) at 37° C. for 5 min. Reactions were terminated and analyzed using thin layer chromatography as indicated above. The ATP-dependent cGAS enzyme kinetics were plotted and fitted according to Michaelis-Menten substrate inhibition analysis in GraphPad Prism (version 7.0c).
Molecule,V. cholerae chemotaxis repression (V. cholerae),lower molecular weight minimal cGAS-DNA complex formation (45 bp dsDNA),2′3′ cGAMP synthesis / enzyme activation in response to short DNA (17 bp DNA),higher-order cGAS-DNA complex formation (45 bp dsDNA),further results
mcGAS,potently arrested chemotaxis,formed two types of DNA complexes,recognized both 45 bp and 17 bp DNA with near equal efficiency,,2′3′ cGAMP synthesis in response to bacterial genomic DNA (V. cholerae genomic DNA): produces more 2′3′ cGAMP than hcGAS
dncV,inhibited chemotaxis,,,,
hcGAS,no loss of chemotaxis,,remained inactive,preferentially formed higher-order oligomeric complexes,"enhanced 2′3′ cGAMP synthesis versus wild type hcGAS [1]: > 15 fold; 2′3′ cGAMP synthesis ([1]; listed as hcGAS*): activity comparable to wildtype mcGAS; catalytic efficiency of 2′3′ cGAMP synthesis, fold less efficient than mcGAS ([1]; varying ATP concentration, Michaelis-Menten with substrate inhibition): ~20 fold"
B1,potently inhibited V. cholerae chemotaxis,restored the ability of hcGAS to form a stable lower molecular weight protein-DNA complex,full enzyme activation,unaffected,"2′3′ cGAMP synthesis [1]: elevated 2′3′ cGAMP synthesis; also recorded: dramatically enhanced 2′3′ cGAMP synthesis; enzyme kinetics of 2′3′ cGAMP synthesis ([1]; varying ATP concentration, compared to mcGAS): nearly equal to mcGAS"
B2,Neither K187N nor L195R alone was sufficient to enhance hcGAS activity,,,,
B3,Neither K187N nor L195R alone was sufficient to enhance hcGAS activity,,,,
